# Reference: patent publication EP4029501A1, “COMBINATION OF POLYAROMATIC UREA DERIVATIVES AND GLUCOCORTICOID OR HDAC INHIBITOR FOR THE TREATMENT OF DISEASES OR CONDITIONS ASSOCIATED WITH MUSCLE CELLS AND/OR SATELLITE CELLS” (Anagenesis Biotechnologies, priority 2021, dated 2022)
# How the values were obtained:
# Assay type in all cases: cell-based, human
# [1] = system: muscle progenitors derived from DMD hiPSC; experiment: Dose response assay of combination treatments with Givinostat or Prednisolone: total myotube area; details: for improvement of potency: versus alone; for EC50: Homo sapiens, Myotube, compound alone, DRC 4.5 nM to 10 µM, DMD hMPs (figure 6), read-out: potency (EC50) on myotube surface
# Excerpt: (§1) • Figure 1 - the workflow of the myotube assay, aiming at monitoring myogenic activity of compounds and effect on satellite-like cells. • Figure 2 - the myogenic activity of compound (i) in a dose-response assay, as shown by an increase of the total myotube surface/well upon increase of compound concentration. • Figure 3 - the positive effect on satellite-like cells of compound (i) in a dose-response assay, as shown by the increase of Pax7-positive cell percentage upon increase of compound concentration. • Figure 4 - representative images for the dose-response of the total myotube area readout for compound (i), corresponding to Figure 2. • Figure 5 - representative images for the dose-response of the percentage of Pax7-positive cell readout for compound (i), corresponding to Figure 3. • Figure 6 - Dose-response curve on muscle progenitors derived from DMD hiPSC. Treatment of muscle progenitors derived from DMD hiPSC with Prednisolone or Givinostat alone inducing a beneficial effect on α-actinin expression (representative of the myotube surface) and a loss of nearly 50 % of Pax7 positive cells (representative of the population of satellite cells) in a dose-dependent manner. The highest concentration represented is 10 µM. The arrows show the point a 0.3 µM. Efficacy values correspond to the highest score of normalized myotube surface (y-axis). Activity values correspond to the half maximal effective concentration (EC50; x-axis). The curve fits were calculated using a 4-parameter logistic regression model (Graphpad PRISM software). Error bars show standard deviation (SD). The picture on the right panel is representative of the highest myotube surface value of the dose-response curve. • Figures 7-9 - Dose-response curve on muscle progenitors derived from DMD hiPSC. Treatment in a dose-dependent manner of muscle progenitors derived from DMD hiPSC with indicated compound alone or with combination with Prednisolone or Givinostat at 0.3 µM. The combination induced an improvement of myogenic capabilities seen with α-actinin expression (representative of the myotube surface) and harbor no worsening of the Pax7 positive cells (representative of the population of satellite cells) compared to Prednisolone or Givinostat alone. The highest concentration of DRC is 10 µM.
# Efficacy values correspond to the highest score of normalized myotube surface (y-axis). Activity values correspond to the half maximal effective concentration (EC50; x-axis). The curve fits were calculated using a 4-parameter logistic regression model (Graphpad PRISM software). Error bars show standard deviation (SD). The picture on the right panel is representative of the highest myotube surface value of the dose-response curve.
# (§2) Figure 1 provides an example of a Myotube assay workflow. At day 0, hMP are thawed and 3.1 million cells are plated into a T75-flask coated with hESC-qualified Matrigel™ (Corning) in SkGM proliferating medium (PromoCells), supplemented with 5 µM Y-27632 (Tocris Bioscience). On day 2, SkGM proliferating medium is refreshed. On day 4, hMP are harvested and transferred into a 384-well plate coated with collagen type I at a density of 3500 cells/well in a DMEM-based medium, containing 5% of knockout serum replacement (Gibco), 1% PenStrep (Gibco), 1% MEM NEAA (Gibco) and 0.1 mM 2-mercaptoethanol (Gibco) (hereafter "K5 medium") and 5 µM Y-27632. Compounds to be tested are then added in the medium and incubated for 3 days at 37°C. On day 7, cells are fixed and immunostained. For example, myotubes (alpha-actinin staining) and satellite-like (Pax7 staining) cells can be analyzed for total myotube area per well or Pax7-positive cell quantification.
# DMD hMPs were put in the Myotube assay according to the workflow described in example 2.1. […]
# [2] = system: muscle progenitors derived from DMD hiPSC; experiment: Myotube assay: total myotube area per well (alpha-actinin staining); details: Homo sapiens, Myotube, 72 h, DMD or WT cell source not given; for Emax: efficacy, MA = normalized Myotube Area, 3 days incubation; for EC50: myogenic activity, half-maximal generation of myotubes, 10 points dose-response 1.5 nM to 30 µM, 3 days
# In short: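 DMD hiPSC-derived muscle progenitors (NCRM-1 background) plated at 3500 cells/well in K5 medium with 5 µM Y-27632, then exposed to compound at 1.5 nM–30 µM for 3 days at 37°C. Cells fixed on day 7, alpha-actinin-immunostained and total myotube area per well quantified; duplicates averaged, EC50 and normalized myotube area derived.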
# Pax7 positive cells = experiment: Dose response assay of combination treatments with Givinostat or Prednisolone: percentage of Pax7-positive cells; details: for drop of satellite cells content: compound alone at 0.3 µM, DMD hMPs (figure 6); for loss of Pax7 positive cells: compound alone, dose-dependent, highest concentration 10 µM (Figure 6 legend)
# Excerpt: as §1, §2
# DMD hMPs were put in the Myotube assay according to the workflow described in example 2.1. In particular, Prednisolone (Sigma) or Givinostat (Exclusive Chemistry) were added in all conditions at a fixed concentration equal to 0.3 µM in combination with compounds az or bw or q tested in DRC at 8 concentrations ranging from 4.5 nM to 10 µM, starting from day 4. Also, as control, DRCs with the same range of concentrations were done with Prednisolone alone, Givinostat (figure 6) alone or compounds az or bw or q alone (figures 7 to 9). […]
# [3] = in combination with Givinostat at 0.3 µM
# [4] = in combination with Prednisolone at 0.3 µM
EC50 [2],Structure (SMILES),Emax [2],also measured
500 to 1000 nM,"Cc1ccc(-n2nc(C(C)(C)C)cc2NC(=O)Nc2ccc(Oc3ccnc4[nH]c(=O)cnc34)cc2C(F)(F)F)cc1 [(az), 1-(3-(tert-butyl)-1-(p-tolyl)-1H-pyrazol-5-yl)-3-(4-((3-oxo-3,4-dihydropyrido[2,3-b]pyrazin-8-yl)oxy)-2-(trifluoromethyl)phenyl)urea]",≥ 75%,"total myotube surface ([1]; DRC 4.5 nM to 10 µM in combination with Givinostat at 0.3 µM): increased the total myotube surface; total myotube surface ([1]; DRC 4.5 nM to 10 µM in combination with Prednisolone at 0.3 µM): increased the total myotube surface; improvement of potency [1, 3]: two fold; improvement of potency [1, 4]: two fold; satellite cell population (Pax7 positive cells; [3]): at least maintained; satellite cell population increase (Pax7 positive cells; [4]): 1.5 fold"
500 to 1000 nM,"CSc1cc(Oc2ccnc3c2CCC(=O)N3)ccc1NC(=O)Nc1cc(C(C)(C)C)no1 [(cz), 1-(3-(tert-butyl)isoxazol-5-yl)-3-(2-(methylthio)-4-((7-oxo-5,6,7,8-tetrahydro-1,8-naphthyridin-4-yl)oxy)phenyl)urea]",≥ 75%,–
500 to 1000 nM,"CC(C)(C)c1cc(NC(=O)Nc2ccc(Oc3ccnc4[nH]c(=O)cnc34)cc2)n(-c2ccccc2)n1 [(s), 1-(3-(tert-butyl)-1-phenyl-1 H-pyrazol-5-yl)-3-(4-((3-oxo-3,4-dihydropyrido[2,3-b]pyrazin-8-yl)oxy)phenyl)urea]",50 to 75%,–
1000 to 5000 nM,"CSc1cc(Oc2ccnc3c2CCCN3)ccc1NC(=O)Nc1cc(C(C)(C)C)nn1-c1ccccc1 [(be), 1-(3-(tert-butyl)-1-phenyl-1H-pyrazol-5-yl)-3-(2-(methylthio)-4-((5,6,7,8-tetrahydro-1,8-naphthyridin-4-yl)oxy)phenyl)urea]",≥ 75%,–
≥ 5000 nM,"CSc1cc(Oc2ccnc3c2ncc(=O)n3C)ccc1NC(=O)Nc1cc(C(C)(C)C)nn1-c1ccccc1 [(au), 1-(3-(tert-butyl)-1-phenyl-1H-pyrazol-5-yl)-3-(4-((4-methyl-3-oxo-3,4-dihydropyrido[2,3-b]pyrazin-8-yl)oxy)-2-(methylthio)phenyl)urea]",≥ 75%,–
500 to 1000 nM,"CSc1cc(NC(=O)Nc2cc(C(C)(C)C)nn2-c2ccccc2)ccc1Oc1ccnc2[nH]c(=O)cnc12 [(dn), 1-(3-(tert-butyl)-1-phenyl-1H-pyrazol-5-yl)-3-(3-(methylthio)-4-((3-oxo-3,4-dihydropyrido[2,3-b]pyrazin-8-yl)oxy)phenyl)urea]",≥ 75%,–
< 500 nM,"CCSc1cc(Oc2ccnc3[nH]c(=O)cnc23)ccc1NC(=O)Nc1cc(C(C)(C)C)nn1-c1ccccc1 [(am), 1-(3-(tert-butyl)-1-phenyl-1 H-pyrazol-5-yl)-3-(2-(ethylthio)-4-((3-oxo-3,4-dihydropyrido[2,3-b]pyrazin-8-yl)oxy)phenyl)urea]",≥ 75%,–
≥ 5000 nM,"CSc1cc(Oc2ccnc3[nH]c(=O)cnc23)ccc1NC(=O)Nc1cc(C(C)(C)C)nn1-c1ccccc1Cl [(at), 1-(3-(tert-butyl)-1-(2-chlorophenyl)-1H-pyrazol-5-yl)-3-(2-(methylthio)-4-((3-oxo-3,4-dihydropyrido[2,3-b]pyrazin-8-yl)oxy)phenyl)urea]",≥ 75%,–
< 500 nM,"CSc1cc(Oc2ccnc3[nH]c(=O)cnc23)ccc1NC(=O)Nc1cc(C(C)(C)C)nn1-c1ccc(C)c(Cl)c1 [(cl), 1-(3-(tert-butyl)-1-(3-chloro-4-methylphenyl)-1H-pyrazol-5-yl)-3-(2-(methylthio)-4-((3-oxo-3,4-dihydropyrido[2,3-b]pyrazin-8-yl)oxy)phenyl)urea]",≥ 75%,–
< 500 nM,"CSc1cc(Oc2ccnc(NC(=O)OC(C)(C)C)c2)ccc1NC(=O)Nc1cc(C(C)(C)C)nn1-c1ccccc1 [(bi), tert-butyl (4-(4-(3-(3-(tert-butyl)-1-phenyl-1H-pyrazol-5-yl)ureido)-3-(methylthio)phenoxy)pyridin-2-yl)carbamate]",≥ 75%,–

# More lines, now with the values behind:
Structure (SMILES),EC50 [2],Emax [2],also measured
"CCN(CC)Cc1ccc2cc(COC(=O)Nc3ccc(C(=O)NO)cc3)ccc2c1 [Givinostat, reference compound]",–,–,EC50 [1]: ≤ 170 nM; drop of satellite cells content (Pax7 positive cells): about 50%; loss of Pax7 positive cells (Pax7 positive cells): ~50%
"CCOC(=O)Nc1cc(Oc2ccc(NC(=O)Nc3cc(C(C)(C)C)nn3-c3ccccc3)c3ccccc23)ccn1 [(da), ethyl (4-((4-(3-(3-(tert-butyl)-1-phenyl-1 H-pyrazol-5-yl)ureido)naphthalen-1-yl)oxy)pyridin-2-yl)carbamate]",< 500 nM,≥ 75%,–
"CSc1cc(Oc2ccnc(NC(=O)CO)c2)ccc1NC(=O)Nc1cc(C(C)(C)C)nn1-c1ccccc1 [(dq), N-(4-(4-(3-(3-(tert-butyl)-1-phenyl-1H-pyrazol-5-yl)ureido)-3-(methylthio)phenoxy)pyridin-2-yl)-2-hydroxyacetamide]",500 to 1000 nM,≥ 75%,–
"CCOC(=O)Nc1cc(Oc2ccc(NC(=O)Nc3cc(C(C)(C)C)nn3-c3ccccc3)c(SC)c2)ccn1 [(cv), ethyl (4-(4-(3-(3-(tert-butyl)-1-phenyl-1H-pyrazol-5-yl)ureido)-3-(methylthio)phenoxy)pyridin-2-yl)carbamate]",< 500 nM,≥ 75%,–
"C[C@]12C=CC(=O)C=C1CC[C@@H]1[C@@H]2[C@@H](O)C[C@@]2(C)[C@H]1CC[C@]2(O)C(=O)CO [Prednisolone, reference compound]",–,–,EC50 [1]: ≤ 170 nM; drop of satellite cells content (Pax7 positive cells): about 50%; loss of Pax7 positive cells (Pax7 positive cells): ~50%
"CC(C)(C)c1cc(NC(=O)Nc2ccc(Oc3ccnc4[nH]c(=O)cnc34)c(F)c2F)n(-c2ccccc2)n1 [(bo), 1-(3-(tert-butyl)-1-phenyl-1 H-pyrazol-5-yl)-3-(2,3-difluoro-4-((3-oxo-3,4-dihydropyrido[2,3-b]pyrazin-8-yl)oxy)phenyl)urea]",< 500 nM,≥ 75%,–
"CSc1cc(Oc2ccnc3[nH]c(=O)cnc23)ccc1NC(=O)Nc1cc(C(C)(C)C)nn1-c1ccc2ncccc2c1 [(bm), 1-(3-(tert-butyl)-1-(quinolin-6-yl)-1 H-pyrazol-5-yl)-3-(2-(methylthio)-4-((3-oxo-3,4-dihydropyrido[2,3-b]pyrazin-8-yl)oxy)phenyl)urea]",< 500 nM,≥ 75%,–
"CSc1cc(Oc2ccnc3c2OCC(=O)N3)ccc1NC(=O)Nc1cc(C(C)(C)C)nn1-c1ccccc1 [(ct), 1-(3-(tert-butyl)-1-phenyl-1H-pyrazol-5-yl)-3-(2-(methylthio)-4-((3-oxo-3,4-dihydro-2H-pyrido[3,2-b][1,4]oxazin-8-yl)oxy)phenyl)urea]",< 500 nM,≥ 75%,–
